Source: US4089966A, “5-N-(3-Amino-2-hydroxy-propyl)-amino-1,2,4-oxadiazole derivatives, processes for their preparation and applications thereof” (Aron Sarl, priority 1975, dated 1978)
Where a name gives a salt, the structure may show the parent alone. Read-outs that look alike come from different tables or passages of the source.

How the values were obtained:
[1] = Acute toxicity (LD 50%, semi-logarithmic technique of Lichfield and Wilcoxon); assay type: in vivo; conditions: for LD50: in vivo
Text: Each value represents the LD 50% expressed as mg/kg, according to the semi-logarithmic technique disclosed by Lichfield and Wilcoxon.

[2] = test system: arrhythmia induced by Strophantine in combination with adrenaline; assay: Preventive action on arrhythmia induced by perfusion of K-Strophantine in combination with adrenaline; assay type: in vivo, guinea-pits; conditions: K-Strophantine 0.I5mg/ml + Adrenaline 5μg/ml, ±SD, control 1.21±0.33
Procedure: (§1) a. Two Examples are given to show the preventive action, by the intravenous route:
(§2) 1. in guinea-pits, on arrhythmia induced by Strophantine alone or in combination with adrenaline;
(§3) The various compounds of the above Table are administered just prior to
(§4) perfusion of the arrhythmogenic materials (K-Strophantine,
(§5) K-Strophantine-Adrenaline, Aconitine). The values represent the period of
(§6) time ± SD (standard deviation) before the first signs of arrhythmia

[3] = test system: aconitine-induced rhythm disorders; assay: Preventive action on aconitine-induced rhythm disorders; assay type: in vivo, rats; conditions: Aconitine 50mg/l, 0.2ml/mn, ±SD, control 85±15
Procedure: as §1
2. in rats, on aconitine-induced rhythm disorders.
as §3, §4, §5, §6

[4] = test system: arrhythmia induced by Strophantine alone; assay: Preventive action on arrhythmia induced by perfusion of K-Strophantine alone; assay type: in vivo, guinea-pits; conditions: K-Strophantine 0.I5mg/ml, 0.5ml/mn, ±SD, control 2.45±0.22
Procedure: as §1, §2, §3, §4, §5, §6

[5] = test system: conduction anesthesia in guinea-pigs; assay: Conduction anesthesia in guinea-pigs compared to Xylocaine; assay type: in vivo; conditions: Xylocaine = 1
[6] = test system: BaCl2 -induced contraction of the duodenum; assay: Antispasmodic activity compared to Papaverine (BaCl2-induced contraction of the duodenum); conditions: Papaverine = 1
[7] = test system: surface anesthesia in rabbits; assay: Surface anesthesia in rabbits compared to Butacaine; assay type: in vivo; conditions: Butacaine = 1
[8] = test system: disorders of the cardiac rhythm in non-anesthetized dogs 24 hours after coronary ligation; assay: Curative activity on disorders of the cardiac rhythm 24 hours after coronary ligation (method according to Harris); assay type: in vivo; conditions: for Percent sinus rhythm after administration of the compound: extreme values in parenthesis
Text: b. An Example is given to show the curative activity by the oral route.
As is apparent from following Table IV, the effect is a function of the disage administered.

[9] = Chronic toxicity, oral, 3 months, young adult rats; assay type: in vivo, rats of Sprague Dawley (Charles River) strain; conditions: oral, 25, 75 and 150 mg/kg during 3 months
Procedure: The compound of Example 1 was administered orally to young adult rats of Sprague Dawley (Charles River) strain, at dosages of 25, 75 and 150 mg/kg during 3 months.

[10] = test system: disorders of the cardiac rhythm; assay: Clinical tests, oral administration in patients suffering from disorders of the cardiac rhythm; assay type: in vivo; conditions: oral, 200, 400 and 600 mg
[11] = Chronic toxicity, intravenous, 1 month, young male adult mice; assay type: in vivo; conditions: 1 and 5 mg/kg during 1 month
Procedure: The compound of Example 1 was also administered intravenously to young male adult mice, at dosages of 1 and 5 mg/kg during 1 month.

[12] = oral route, read-out: LD50, oral route
[13] = intravenous route, read-out: LD50, intravenous route

SMILES | LD50 [1, 12] [mg/kg] | Ratio between the activity of compound (I) and the activity of Xylocaine for conduction anesthesia, on administration of a same dosage [5] | Ratio between the dosage of Papaverine and the dosage of Compound (1) producing the same antispasmodic activity [6] | Ratio between the activity of compound (I) and the activity of Butacaine for surface anesthesia, on administration of a same dosage [7] | LD50 [1, 13] [mg/kg] | other results
CN1CCN(CC(O)CNc2nc(-c3ccccc3)no2)CC1 (stereo not drawn) [Example 10] | 750 |  |  |  |  | insoluble (entry in place of the intravenous LD50) ([1]; intravenous route): inso-
CCCN(CC(O)CN(CC)CC)c1nc(-c2ccccc2)no1 (stereo not drawn) [Example 7, 5-[N-(3-diethylamino-2-hydroxy-propyl)-N-propyl]amino-3-phenyl-1,2,4-oxadiazole fumarate hydrate] | 250 |  |  |  |  | period of time before the first signs of arrhythmia appear ([2]; 2.5 mg/kg intravenous): 1.74±0.16 decimal minutes; period of time before the first signs of arrhythmia appear ([3]; 2.5 mg/kg intravenous): 185 ± 48 s; period of time before the first signs of arrhythmia appear ([4]; 2.5 mg/kg intravenous): 2.85±0.1 decimal minutes; insoluble (entry in place of the intravenous LD50) ([1]; intravenous route): inso-
CCNCC(O)CN(CC)c1nc(-c2ccccc2)no1 (stereo not drawn) [Example 12] |  | 1.65 | 0.8 | 1 |  | 
CCN(CC)CC(O)CNc1nc(-c2ccc(F)cc2)no1 (stereo not drawn) [Example 4, 5-(3-diethylamino-2-hydroxy-propyl)-amino-3-(4-fluorophenyl)-1,2,4-oxadiazole fumarate] | 750 | 1.5 |  | 1.4 |  | 
C=CCN(CC(O)CN(CC)CC)c1nc(-c2ccccc2)no1 (stereo not drawn) [Example 8] |  | 1 | 2.5 | 1.5 |  | 
CCN(CC)CC(O)CN(C)c1nc(-c2ccccc2)no1 (stereo not drawn) [Example 1, 5-N-(3-diethylamino-2-hydroxy-propyl)-N-methylamino-3-phenyl-1,2,4-oxadiazole fumarate hydrate] | 280 | 1 | 1.5 | 1.5 | 30 | Percent sinus rhythm after administration of the compound ([8]; 10 mg/kg oral, 3 tests, prior to administration 5%(0-15%)): 25%(0-65%); Percent sinus rhythm after administration of the compound ([8]; 25 mg/kg oral, 8 tests, prior to administration 5.6% (0-18%)): 59%(5-100%); Percent sinus rhythm after administration of the compound ([8]; 50 mg/kg oral, 6 tests, prior to administration 7.6% (0-20%)): 71.6% (25-100%); curative activity on disorders of the cardiac rhythm after coronary ligation (in words) ([8]; non-anesthetized dogs, oral route): corrects the disorders of the cardiac rhythm; period of time before the first signs of arrhythmia appear ([2]; 10 mg/kg intravenous): 1.62±0.42 decimal minutes; period of time before the first signs of arrhythmia appear ([3]; 5 mg/kg intravenous): 141 ± 28 s; period of time before the first signs of arrhythmia appear ([3]; 10 mg/kg intravenous): 126 ± 23 s; period of time before the first signs of arrhythmia appear ([4]; 5 mg/kg intravenous): 3.27±0.4 decimal minutes; period of time before the first signs of arrhythmia appear ([4]; 10 mg/kg intravenous): 3.18±0.33 decimal minutes; change of weight of the organs on autopsy [9]: No change of weight of the organs was found; hematologic examination, biochemical blood tests and urinalysis [9]: No anomaly was detected; histological anomaly on anatomicopathological examination [9]: No histological anomaly, and particularly no liver, kidney or brain injury was found; effects in patients suffering from disorders of the cardiac rhythm [10]: beneficial effects; Tolerance ([10]; patients): good; glycemia and serum transaminase level [11]: comparable in the treated animals and in the control animals; hematological examination [11]: No substantial modifications were found; histological anomaly on autopsy [11]: No histological anomaly was found on autopsy, particularly no cytologic injury of the liver, the kidneys, the pancreas, the heart or the brain; local tolerance of the injections [11]: well tolerated locally
CCCN(CCC)CC(O)CN(C)c1nc(-c2ccccc2)no1 (stereo not drawn) [Example 9, 5-N-(3-dipropylamino-2-hydroxy-propyl)-N-methylamino-3-phenyl-1,2,4-oxadiazole fumarate hydrate] | 250 | 1.6 | 4 | 1.65 | 50 | period of time before the first signs of arrhythmia appear ([2]; 2.5 mg/kg intravenous): 1.77±0.08 decimal minutes
CCN(CC)CC(O)CN(C)c1nc(-c2ccncc2)no1 (stereo not drawn) [Example 11] | 750 | 1 | 0.2 | 1.5 | 100 | period of time before the first signs of arrhythmia appear ([2]; 10 mg/kg intravenous): 1.3±0.3 decimal minutes; period of time before the first signs of arrhythmia appear ([3]; 20 mg/kg intravenous): 129 ± 21 s
CCN(CC)CC(O)CN(CC)c1nc(-c2ccccc2)no1 (stereo not drawn) [Example 5] | 200 | 1.7 | 3 | 1.7 | 18 | period of time before the first signs of arrhythmia appear ([2]; 5 mg/kg intravenous): 1.60±0.35 decimal minutes; period of time before the first signs of arrhythmia appear ([3]; 5 mg/kg intravenous): 119 ± 15.5 s; period of time before the first signs of arrhythmia appear ([4]; 5 mg/kg intravenous): 3.43±0.51 decimal minutes
CCN(CC)CC(O)CNc1nc(-c2ccccc2)no1 (stereo not drawn) [Example 2] | 700 | 1.4 | 1 | 1 | 55 | period of time before the first signs of arrhythmia appear ([2]; 10 mg/kg intravenous): 2.73±0.5 decimal minutes; period of time before the first signs of arrhythmia appear ([3]; 10 mg/kg intravenous): 155 ± 32 s; period of time before the first signs of arrhythmia appear ([4]; 10 mg/kg intravenous): 3.04±0.52 decimal minutes
COc1ccc(Cc2nccc3cc(OC)c(OC)cc23)cc1OC [Papaverine, reference compound] |  |  | 1 |  |  | 
